{
  "source": "patent US8334299B2",
  "about": "“β-carboline for the treatment of neurodegenerative diseases” (Ellneuroxx, Ltd., priority 2007, dated 2012)",
  "key": {"[1]": {"tested_on": "midbrain cells in culture", "assay": "LDH release of midbrain cells in culture", "type": "cell-based, mice", "conditions": "48 hours; dose-dependent up to 50 μM", "description": "FIG. 4a LDH release after 48 hours of incubation with 50 μM 9-methyl-β-carboline for 48 hours 10 DIV-12 DIV.\nDying cells release the enzyme lactate dehydrogenase (LDH) into the medium. Since cells always die in culture always a small LDH concentration can be detected in the medium as an indirect measure for the vitality of the culture. Compared to control conditions the LDH concentration decreased after incubation with 9-methyl-β-carboline in a dose-dependent manner with a concentration up to 50 μM (FIG. 4a). The number of dead cells can be quantified by staining the cell nuclei with propidium iodide."}, "[2]": {"tested_on": "caspase-3", "assay": "Activity of the apoptosis enzyme caspase-3 in midbrain culture", "type": "cell-based, mice", "conditions": "50 μM", "description": "FIG. 4d Activity of the apoptosis enzyme caspase-3 during and after incubation with 50 μM 9-methyl-β-carboline for 48 hours 10 DIV-12 DIV.\nIn 48 hours about 20% of the cells in culture died. In cultures with a 9-Alkyl-β-carboline only about 10% of the cells died under the same conditions (FIG. 4b). Thus, the findings are in line with the LDH findings. ATP provides the cell with energy. […] The enzyme caspase-3 is an indicator for apoptosis. After 24 hours, the enzyme activity was reduced which hints at a reduction of apoptotic processes, after 48 hours, however, it was increased (FIG. 4d). The last finding hints at a switch of culture cells from reduced necrosis to apoptosis, thus a more precise regulation of cell death."}, "[3]": {"tested_on": "human neuroblastoma cell line (SH-SY5Y-cells)", "assay": "Differentiation and proliferation (bromodeoxyuridine incorporation) of human neuroblastoma cells", "type": "cell-based", "description": "FIG. 5 Percentage of BrdU-positive cells of human neuroblastoma cells after incubation with 50 μM 9-methyl-β-carboline for 48 hours 10 DIV-12 DIV.\nFIG. 6 Evidence of the reduction of cell proliferation by incorporation of bromodeoxyuridine into the cell nucleus chromatin.\nThe experiments were carried out with the human neuroblastoma cell line (SH-SY5Y-cells) and with a cell culture of primary nerve cells from the mice embryo midbrain. […] Moreover, the mentioned compounds induce in the primary culture from the mice embryo midbrain the generation of new, differentiated and functional dopaminergic neurons.\nThe question whether 9-Alkyl-β-carboline derivatives lead to the differentiation of neurons is of outstanding importance.\nThis cell line has many characteristics which dopaminergic neurons have as well. […] So this confirms the observations in the primary midbrain cultures that 9-methyl-β-carboline promotes the differentiation and thus the maturation of neuronal cells (FIG. 1a and FIG. 1b).\nCell proliferation can be measured by the incorporation of bromodeoxyuridine. […] This hints at a reduction of cell proliferation. This finding also supports the other findings that 9-alkyl-β-carboline derivatives promote cell differentiation."}, "[4]": {"tested_on": "genes involved in neuronal differentiation, inflammation, apoptosis", "assay": "Microarray analysis of gene transcription in midbrain cultures", "type": "cell-based, mice", "conditions": "vs control cultures", "source_text": "These findings were further sustained by so-called microarray methods. The analyses confirm that the transcription of genes involved in neuronal differentiation is increased."}, "[5]": {"tested_on": "dopamine concentration in the striatum", "assay": "Chronic MPP+ infusion model of Parkinson's disease, dopamine concentration in the striatum", "type": "in vivo, rat", "conditions": "rat", "source_text": "In the diagram the dopamine (DA) levels of the left and right striatum of the single rats are indicated.\n(§1) To investigate Parkinson's disease acute in vivo models are used for years although chronic models would be a better model for the disease. Another disadvantage of the acute models is that ca. 40% of the animals die from the application of the neurotoxin. Therefore, we have chosen a chronic model in which comparably very low doses of neurotoxin 1-methyl-4-phenylpyridinium (MPP^+) were infused for 28 days into the left lateral ventricle of the rat brain. The substance was continuously applied through osmotic minipumps. Thereby, casualties were completely avoided. After four weeks, either solvent or equimolar amounts of the sample substance, namely neuroprotective betacarboline, resp. 9-alkyl-betacarboline was infused for two weeks via the same catheter. In a preliminary study for dose-finding the MPP^+ dose which leads to a reduction by 40% of the dopamine concentration in the striatum was determined. The dopamine concentration in the striatum is a characteristic marker for Parkinson's disease in which a degeneration of dopaminergic neurons occurs.\nThe compounds A to L were tested as described in example 8. The test results of the compounds A to L are indicated in the following table in comparison to 9-methyl-β-carboline."}, "[6]": {"tested_on": "brain-derived neurotrophic factor (BDNF)", "assay": "PCR superarray of RNA from the striata of MPP+ rats: BDNF", "type": "in vivo, rat", "source_text": "as §1\n(§2) An explanation for the effect of the betacarboline was found in the tests of the RNA from the striata of these rats through the PCR superarray method. Accordingly, the betacarboline activates the generation of neurotrophins, thus proteins produced naturally in the body, which are responsible for the growth and differentiation of neurons. […]"}, "[7]": {"tested_on": "glial cell line-derived neurotrophic factor (GDNF)", "assay": "PCR superarray of RNA from the striata of MPP+ rats: GDNF", "type": "in vivo, rat", "source_text": "as §1, §2"}},
  "data": [
    {"smiles": "Cn1c2ccccc2c2ccncc21", "note": "[9-methyl-β-carboline]", "values": [
      {"measurement": "LDH concentration in the medium compared to control", "setting": "[1]", "value": "decreased"},
      {"measurement": "caspase-3 enzyme activity", "setting": "[2]; after 24 hours", "value": "reduced"},
      {"measurement": "caspase-3 enzyme activity", "setting": "[2]; after 48 hours", "value": "increased"},
      {"measurement": "installation of bromodeoxyuridine into the chromatin in the cell nucleus", "setting": "[3]; 50 μM, 48 hours, BrdU-positive cells", "value": "decreases"},
      {"measurement": "cellular extensions of neuroblastoma cells", "setting": "[3]; human neuroblastoma cells", "value": "growth of cellular extensions"},
      {"measurement": "proliferation of neuroblastoma cells vs control cells", "setting": "[3]; human neuroblastoma cells", "value": "proliferate less than control cells"},
      {"measurement": "transcription of genes involved in apoptosis", "setting": "[4]", "value": "transcribed less"},
      {"measurement": "transcription of genes involved in neuronal differentiation", "setting": "[4]", "value": "increased"},
      {"measurement": "transcription of genes which activate inflammation processes", "setting": "[4]", "value": "transcribed less"},
      {"measurement": "dopamine concentration in the left striatum", "setting": "[5]; 4 weeks MPP+ then 2 weeks compound (equimolar, 0.105 mg/kg/day) into left ventricle", "value": "normalized"},
      {"measurement": "effect in an established model of Parkinson's disease", "setting": "[5]; chronic MPP+ model", "value": "neuroprotective effect"},
      {"measurement": "increase of BDNF compared to rats infused solvent only for six weeks", "setting": "[6]; left striatum", "value": 4.9, "unit": "times"},
      {"measurement": "increase of BDNF compared to rats infused solvent only for six weeks", "setting": "[6]; right striatum", "value": 8.5, "unit": "times"},
      {"measurement": "concentration of GDNF", "setting": "[7]; left striatum", "value": "did not increase"},
      {"measurement": "increase of GDNF by factor", "setting": "[7]; right striatum", "value": 12}
    ]}
  ]
}
